Source: US20140328944A1, “USE OF CTBP1 siRNA FOR THE TREATMENT OF GASTRIC CANCER” (CTI, priority 2013, published 2014)

Test system: AGS and MKN45 gastric cancer cell lines
Assay: MTS-based cell proliferation assay after siRNA transfection (drug dose-response)
Conditions: CTBP1 siRNA (5 nM) vs untreated cells (WT) and control siRNA, 72 h drug incubation
Protocol: MKN45 cell lines were grown in RPM1-1640 media and AGS cell lines in F12K, both media were supplemented with 10% characterized fetal bovine serum (FBS) (Hyclone, Logan, Utah, USA) and 100 U /ml of Penicillin /Streptomycin (Gibco BRL, Gaithersburgh, Md., USA). Cells were grown in an incubator (NUAIRE, Plymouth, USA) at 37° C. with an atmosphere of 5% CO2 and 90% humidity. The drugs 5-FU, Cisplatin and Epirubicin were donated for this research by the Kampar Oncology Laboratory (Santiago, Chile).
In 6-well plates, 200,000 cells were cultured in their respective culture medium with 10% FBS for 24 h at 37° C. and 5% CO2 pressure. Then cells were washed once with PBS IX and 900 ul of their respective medium without serum and without antibiotic were added.
The cells were transfected with a pool of 4 siRNA Flexitube siRNA CTBP1 and siRNA control AllStars Negative Control (QIAGEN, Valencia, Calif., USA) at a concentration of 5 nM with 2.5 ul of Lipofectamine 2000 (Invitrogen, Carlsbad, Calif., USA). […]
24 hours after transfection, cells were seeded in 96 well plates at a concentration of 10,000 cells per well. […] The IC50 values were calculated using GraphPad 5.0 software. The results of the response to the drugs were expressed as mean±SD. […]

SMILES	increase in sensitivity to the drug on silencing of CTBP1 with siRNA
COc1cccc2c1C(=O)c1c(O)c3c(c(O)c1C2=O)C[C@@](O)(C(=O)CO)C[C@@H]3O[C@H]1C[C@H](N)[C@@H](O)[C@H](C)O1 [Epirubicin]	12-17 times
O=c1[nH]cc(F)c(=O)[nH]1 [5-FU, 5-Fluorouracil]	approximately 6 times
